Laboratory results: patent US10363229B2, “Methods and compositions for the treatment of cancer” (priority 2009, dated 2019)

What was measured:
[1] = system: Cloudman S-91 mouse melanoma cells (sub-clone M-3); assay: Annexin V-FITC/propidium iodide apoptosis assay in melanoma cells; format: cell-based
Procedure: (§1) Cloudman S-91 mouse melanoma cells (sub-clone M-3, CCL 53.1; American Type Culture Collection, Rockville, Md.) were grown in RMPI medium supplemented with 10% fetal bovine serum (Invitrogen, Inc) and 5% penicillin-streptomycin (Invitrogen, Inc). Mouse breast cancer cells (66Cl-1; American Type Culture Collection, Rockville, Md.) that are estrogen-receptor negative were grown in DMEM medium supplemented with 10% fetal bovine serum (Invitrogen, Inc) and 5% penicillin/streptomycin (Invitrogen, Inc). Human T-cell leukemic lymphocytes (CEM; American Type Culture Collection, Rockville, Md.) were grown in MEM medium supplemented with 7% fetal calf serum. Cultures were passaged twice a week.
Early and late apoptosis was assessed with the Annexin V-FITC Apoptosis Detection Kit from PharMingen (Becton-Dickinson, San Diego, Calif.). Images were obtained at the Center for Cell Analysis and Modeling, University of Connecticut Health Center, Farmington, Conn., with an Axioplan CCD Microscope equipped with a 40×1.3 NA FL objective lens and Photometrics PXL-EEV37 high speed digital cooled CCD camera via Metamorph image acquisition and analysis software (Universal Imaging Corp., Downington, Pa.).
(§2) M3 Cloudman melanoma cells were plated into culture dishes containing RPMI medium. After 24 hour media was changed to control medium (no drug) or to media containing different concentrations of methyl sulfone (1-10% methyl sulfone in RPMI medium). Cells were examined by live cell video microscopy immediately after adding drug and every 24 hours up to 144 hours.
Briefly, melanoma cells (Cloudman M3 cell line) were plated at 10^5 cells/ml in RPMI medium. After 24 hours, medium was replaced with RPMI containing different concentrations (grams/volume) of MMS, MES and EES. After 24 hours, apoptosis was assayed using the Becton-Dickinson Annexin V-FITC/Propidium Iodide Kit and a Nikon fluorescent microscope as described by the manufacturer.

[2] = system: M3 Cloudman melanoma cells; assay: Live cell video microscopy of melanoma cells (morphology, contact inhibition); format: cell-based, mouse; conditions: equimolar concentration substituted for 2% methyl sulfone
Procedure: as §1
Cells were plated on 35 mm tissue culture dishes at concentration of 10^5 cells/plate, unless stated otherwise, and incubated at 37° C., 5% CO2. After 24 hours, methyl sulfone (0-10% in medium) was added to appropriate plates and immediately videotaped with a Nikon TE300 inverted microscope equipped with a 10×0.25 NA Plan Achromat objective lens. Control cells (no drug) were videotaped as described above. Time series (10 min) of phase contrast images were acquired at a video rate of 1 frame/5 s with a Watec-902B CCD video camera (Watec Corp., Japan) via the stream acquisition option of Metamorph image acquisition and analysis software (Universal Imaging Corp., Downington, Pa.). During recordings, cells were kept at 37° C. with 10 mM Hepes, pH 7.4. Time series of cells +/−2% methyl sulfone were obtained every 24-48 hours for up to 6 weeks.
as §2
The possibility that the data generated from treating cells with methyl sulfone was a nonspecific effect due to changes in extracellular osmolarity was considered. To test this possibility an equimolar concentration of urea was substituted for 2% methyl sulfone; urea has a chemical structure and dipolar moment that is similar to methyl sulfone. […] We next replaced 2% methyl sulfone with an equimolar concentration of dimethyl sulfoxide (DMSO).

[3] = system: microtubules in melanoma cells; assay: Immunofluorescence of microtubules, incl. vinblastine stability test; format: cell-based, mouse; conditions: 10^−7 M vinblastine, no methyl sulfone
Procedure: Cells were plated in 6-100 mm tissue culture plates, each containing 1 polylysine-coated 10-well slide, or plated onto polylysine-coated coverslips. Once cells were approximately 50% confluent, 2% methyl sulfone was added to cells for 10, 30, 60, 90, and 120 minutes. At each time point cells were placed in microtubule stabilizing buffer ( ) for 10 minutes followed by incubation in −20° C. methanol for 5 minutes. Cells were washed twice in 0.1% Triton X-100 in PBS at room temperature, then incubated with mouse monoclonal anti-alpha-tubulin antibody (Santa Cruz Biotech, Calif.; diluted 1/200 in 1% BSA/PBS) for 1.5 hours. Cells were washed 5 times in 0.1% Triton X-100/PBS, 3 minutes each. Cells were incubated with secondary antibody (Alexa Fluor 568 rabbit anti-mouse antibody; diluted 1/100 in 1%/PBS) for 30 minutes in the dark. Cells were washed five times in 0.1% Triton X-100/PBS, three minutes each. Cells were washed two times in PBS at 2 minute intervals and incubated with DAPI (1 μg/ml in PBS) for 5 minutes at room temperature and in the dark. Cells were washed in PBS for one minute. SlowFade was added to glass slides, coverslips were placed cell side down and sealed with nail polish. Microtubules were viewed at the Center for Cell Analysis and Modeling, University of Connecticut Health Center, Farmington, Conn., with an Axioplan CCD Microscope equipped with a 40×1.3 NA FL objective lens and Photometrics PXL-EEV37 high speed digital cooled CCD camera via Metamorph image acquisition and analysis software (Universal Imaging Corp., Downington, Pa.).
One assay to test stability of microtubules is to give cells increasing concentrations of a microtubule-disassembly drug and use immunofluorescence microscopy to assess microtubule lengths (Caron et al). A higher concentration of drug will be required to disassemble the more stabilized microtubules. We used different concentrations of the anti-microtubule drug, vinblastine, to assess microtubule stability in control cells and cells incubated with 2% methyl sulfone.

[4] = system: CEM cells, leukemic T-cell lymphocytes; assay: Apoptosis of leukemic lymphocytes, FITC-annexinV/propidium iodide microscopy; format: cell-based, human; conditions: 10^−7 M VNB, 20 hours
Procedure: as §1
CEM cells, leukemic T-cell lymphocytes obtained from a child with acute lymphocytic leukemia, were maintained in Petri dishes in MEM (minimal essential medium) with 7% fetal calf serum in a 5% CO2 incubator at 37° C. For experiments, methyl sulfone was added to the medium at concentrations from 0-6.0%. In control cells, no methyl sulfone was added. Cells (2×10^6 per ml) were incubated for 20 hrs in the presence or absence of methyl sulfone, and then assayed for apoptosis using FITC-annexinV/propidium iodide microscopy. Methyl sulfone was also compared to the anti-microtubule drug, vinblastine. Vinblastine (VNB) and its derivative, vincristine, are standard treatments for acute lymphocytic leukemia, as well as other cancers. We used the concentration of VNB that is found in the blood of subjects being treated with this drug (10^−7 M) (6,7).

Row | SMILES | window of concentrations between killing cancer cells and harming normal cells [1] | effect on melanoma cells of osmolarity control substance [2] | other results
1 | CCS(C)(=O)=O [MES, methyl ethyl sulfone, reference compound] | narrow differential |  | 
2 | NC(N)=O [urea, reference compound] |  | induced necrotic death | 
3 | CCS(=O)(=O)CC [EES, ethyl ethyl sulfone, reference compound] | narrow differential |  | 
4 | C[S+](C)[O-] [DMSO, dimethyl sulfoxide, reference compound] |  | had no effect | 
5 | CC[C@]1(O)C[C@@H]2CN(CCc3c([nH]c4ccccc34)[C@@](C(=O)OC)(c3cc4c(cc3OC)N(C)[C@H]3[C@@](O)(C(=O)OC)[C@H](OC(C)=O)[C@]5(CC)C=CCN6CC[C@]43[C@@H]65)C2)C1 [vinblastine, reference compound] |  |  | microtubules in control cells [3]: largely gone; apoptotic leukemic cells [4]: 48%
